{"source": "ChEMBL document CHEMBL5579824", "about": "“Novel Hsp90-Targeting PROTACs: Enhanced synergy with cisplatin in combination therapy of cervical cancer” (Eur J Med Chem, 2024)", "key": {"SiHa [1]": {"test_system": "SiHa", "assay": "Induction of cell cycle arrest in human SiHa cells assessed as accumulation of cells at S pahse at 2.5 uM incubated after 48 hrs by PI staining based flow cytometry (reference value: 8.51 %)", "type": "functional"}, "SiHa [2]": {"test_system": "SiHa", "assay": "Synergistic antiproliferative activity against human SiHa cells assessed as combination index at 0.05 uM incubated for 72 hrs in presence of 31.62 uM cisplatin by CCK-8 assay", "type": "functional"}, "SiHa [3]": {"test_system": "SiHa", "assay": "Synergistic antiproliferative activity against human SiHa cells assessed as combination index at 0.75 uM incubated for 72 hrs in presence of 0.01 uM cisplatin by CCK-8 assay", "type": "functional"}, "SiHa [4]": {"test_system": "SiHa", "assay": "Induction of cell cycle arrest in human SiHa cells assessed as accumulation of cells at G2/M pahse at 1 uM incubated after 48 hrs by PI staining based flow cytometry (reference value: 7.37 %)", "type": "functional"}, "SiHa [5]": {"test_system": "SiHa", "assay": "Synergistic antiproliferative activity against human SiHa cells assessed as combination index at 0.5 uM incubated for 72 hrs in presence of 3.16 uM cisplatin by CCK-8 assay", "type": "functional"}, "[6]": {"molecular_target": "T1, Protein cereblon/Heat shock protein HSP 90-alpha/Heat shock protein HSP 90-beta (Homo sapiens) (UniProt P07900+P08238+Q96SW2)", "assay": "Protac activity at CRBN/Hsp90 in human SiHa cells assessed as induction of Hsp90 degradation at 0.05 uM incubated for 2 hrs in presence of MG-132 by Western blot analysis", "type": "cell-based"}, "SiHa [7]": {"test_system": "SiHa", "assay": "Synergistic antiproliferative activity against human SiHa cells assessed as combination index at 10 uM incubated for 72 hrs in presence of 0.1 uM cisplatin by CCK-8 assay", "type": "functional"}, "SiHa [8]": {"test_system": "SiHa", "assay": "Synergistic antiproliferative activity against human SiHa cells assessed as combination index at 10 uM incubated for 72 hrs in presence of 0.03 uM cisplatin by CCK-8 assay", "type": "functional"}, "[9]": {"molecular_target": "T1, Protein cereblon/Heat shock protein HSP 90-alpha/Heat shock protein HSP 90-beta (Homo sapiens)", "assay": "Protac activity at CRBN/Hsp90 in human Ca-Ski cells assessed as induction of Hsp90 degradation (causing hook effect) at > 0.075 uM incubated for 10 hrs by Western blot analysis", "type": "cell-based"}, "SiHa [10]": {"test_system": "SiHa", "assay": "Antitumor activity against human SiHa cells xenografted in BALB/c nude mouse assessed as tumor growth inhibition at 2 mg/kg, ip", "type": "functional, organism-based"}, "SiHa [11]": {"test_system": "SiHa", "assay": "Induction of apoptosis in human SiHa cells assessed as early apoptotic cells at 2.5 uM incubated after 48 hrs by annexin V-FITC/PI staining based flow cytometry (reference value: 2.05 %)", "type": "functional"}, "SiHa [12]": {"test_system": "SiHa", "assay": "Synergistic antiproliferative activity against human SiHa cells assessed as combination index at 1 uM incubated for 72 hrs in presence of 10 uM cisplatin by CCK-8 assay", "type": "functional"}, "SiHa [13]": {"test_system": "SiHa", "assay": "Synergistic antiproliferative activity against human SiHa cells assessed as combination index at 5 uM incubated for 72 hrs in presence of 3.16 uM cisplatin by CCK-8 assay", "type": "functional"}, "SiHa [14]": {"test_system": "SiHa", "assay": "Synergistic antiproliferative activity against human SiHa cells assessed as combination index at 1 uM incubated for 72 hrs in presence of 0.03 uM cisplatin by CCK-8 assay", "type": "functional"}, "SiHa [15]": {"test_system": "SiHa", "assay": "Induction of cell cycle arrest in human SiHa cells assessed as increase in accumulation of cells at G2/M pahse incubated after 48 hrs by PI staining based flow cytometry", "type": "functional", "conditions": "dose 0.05-10 µM"}, "SiHa [16]": {"test_system": "SiHa", "assay": "Synergistic antiproliferative activity against human SiHa cells assessed as combination index at 10 uM incubated for 72 hrs in presence of 3.16 uM cisplatin by CCK-8 assay", "type": "functional"}, "[17]": {"molecular_target": "T1, Protein cereblon/Heat shock protein HSP 90-alpha/Heat shock protein HSP 90-beta (Homo sapiens)", "assay": "Protac activity at CRBN/Hsp90 in human SiHa cells assessed as induction of Hsp90 degradation at 0.05 uM incubated for 2 hrs in presence of lenalidomide by Western blot analysis", "type": "cell-based"}, "SiHa [18]": {"test_system": "SiHa", "assay": "Induction of cell cycle arrest in human SiHa cells assessed as accumulation of cells at G1 pahse at 1 uM incubated after 48 hrs by PI staining based flow cytometry (reference value: 83.90 %)", "type": "functional"}, "[19]": {"assay": "Toxicity in BALB/c nude mouse xenografted with human SiHa cells assessed as body weight weight loss at 2 mg/kg, ip co-treated with cisplatin separately for every two days", "type": "organism-based", "conditions": "in vivo"}, "SiHa [20]": {"test_system": "SiHa", "assay": "Induction of cell cycle arrest in human SiHa cells assessed as accumulation of cells at G1 pahse at 0.05 uM incubated after 48 hrs by PI staining based flow cytometry (reference value: 83.90 %)", "type": "functional"}, "SiHa [21]": {"test_system": "SiHa", "assay": "Induction of cell cycle arrest in human SiHa cells assessed as accumulation of cells at G1 pahse at 10 uM incubated after 48 hrs by PI staining based flow cytometry (reference value: 83.90 %)", "type": "functional"}, "SiHa [22]": {"test_system": "SiHa", "assay": "Synergistic antiproliferative activity against human SiHa cells assessed as combination index at 0.05 uM incubated for 72 hrs in presence of 10 uM cisplatin by CCK-8 assay", "type": "functional"}, "[23]": {"molecular_target": "T1, Protein cereblon/Heat shock protein HSP 90-alpha/Heat shock protein HSP 90-beta (Homo sapiens)", "assay": "Protac activity at CRBN/Hsp90 in human SiHa cells assessed as induction of Hsp90 degradation (causing hook effect) at > 0.075 uM incubated for 10 hrs by Western blot analysis", "type": "cell-based"}, "SiHa [24]": {"test_system": "SiHa", "assay": "Synergistic antiproliferative activity against human SiHa cells assessed as combination index at 5 uM incubated for 72 hrs in presence of 1 uM cisplatin by CCK-8 assay", "type": "functional"}, "SiHa [25]": {"test_system": "SiHa", "assay": "Inhibition of cell migration in human SiHa cells at 0.5 uM measured after 48 hrs by microscope based wound healing assay relative to control", "type": "functional"}, "SiHa [26]": {"test_system": "SiHa", "assay": "Antitumor activity against human SiHa cells xenografted in BALB/c nude mouse assessed as reduction in Ki67 protein expression at 2 mg/kg, ip by immunohistochemical analysis", "type": "functional, organism-based"}, "[27]": {"molecular_target": "T1, Protein cereblon/Heat shock protein HSP 90-alpha/Heat shock protein HSP 90-beta (Homo sapiens)", "assay": "Protac activity at CRBN/Hsp90 in human SiHa cells assessed as induction of Hsp90 degradation at 1 uM incubated for 8 to 10 hrs by Western blot analysis", "type": "cell-based", "conditions": "time 8-10 hrs"}, "[28]": {"molecular_target": "T1, Protein cereblon/Heat shock protein HSP 90-alpha/Heat shock protein HSP 90-beta (Homo sapiens)", "assay": "Protac activity at CRBN/Hsp90 in human SiHa cells assessed as decrease in HER2 protein expression level at 0.05 uM incubated for 10 hrs by Western blot analysis", "type": "cell-based"}, "SiHa [29]": {"test_system": "SiHa", "assay": "Synergistic antiproliferative activity against human SiHa cells assessed as combination index at 1 uM incubated for 72 hrs in presence of 3.16 uM cisplatin by CCK-8 assay", "type": "functional"}, "SiHa [30]": {"test_system": "SiHa", "assay": "Synergistic antiproliferative activity against human SiHa cells assessed as combination index at 5 uM incubated for 72 hrs in presence of 0.1 uM cisplatin by CCK-8 assay", "type": "functional"}, "SiHa [31]": {"test_system": "SiHa", "assay": "Synergistic antiproliferative activity against human SiHa cells assessed as combination index at 0.1 uM incubated for 72 hrs in presence of 3.16 uM cisplatin by CCK-8 assay", "type": "functional"}, "[32]": {"molecular_target": "Serine/threonine-protein kinase AKT (Homo sapiens) (UniProt P31751+Q9Y243+P31749)", "sequence (P31749 whole entry, looked up)": "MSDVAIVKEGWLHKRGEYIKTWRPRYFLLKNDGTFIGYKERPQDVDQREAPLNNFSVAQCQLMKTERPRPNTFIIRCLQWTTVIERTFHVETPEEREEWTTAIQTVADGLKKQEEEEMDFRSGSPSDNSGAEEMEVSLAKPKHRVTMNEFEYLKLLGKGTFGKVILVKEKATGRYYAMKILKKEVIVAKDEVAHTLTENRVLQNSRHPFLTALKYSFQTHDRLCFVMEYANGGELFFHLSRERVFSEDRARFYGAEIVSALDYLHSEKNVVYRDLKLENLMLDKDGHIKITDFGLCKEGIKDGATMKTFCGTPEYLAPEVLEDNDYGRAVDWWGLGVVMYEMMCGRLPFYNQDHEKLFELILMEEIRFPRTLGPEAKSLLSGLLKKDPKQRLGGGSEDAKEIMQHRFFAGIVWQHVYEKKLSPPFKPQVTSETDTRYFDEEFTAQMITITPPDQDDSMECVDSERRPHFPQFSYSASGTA", "sequence (P31751 whole entry, looked up)": "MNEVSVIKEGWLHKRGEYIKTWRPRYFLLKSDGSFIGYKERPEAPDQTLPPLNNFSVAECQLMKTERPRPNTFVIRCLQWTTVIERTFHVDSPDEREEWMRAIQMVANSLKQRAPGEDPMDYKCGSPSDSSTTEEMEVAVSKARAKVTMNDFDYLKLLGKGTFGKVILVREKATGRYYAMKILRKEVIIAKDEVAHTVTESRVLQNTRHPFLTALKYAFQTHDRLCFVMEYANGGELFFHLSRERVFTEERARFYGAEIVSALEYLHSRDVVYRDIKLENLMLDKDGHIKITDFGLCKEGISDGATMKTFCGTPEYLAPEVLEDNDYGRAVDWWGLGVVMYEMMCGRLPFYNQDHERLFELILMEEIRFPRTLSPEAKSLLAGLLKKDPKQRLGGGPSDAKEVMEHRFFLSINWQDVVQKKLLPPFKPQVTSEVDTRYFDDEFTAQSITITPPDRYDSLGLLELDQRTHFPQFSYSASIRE", "sequence (Q9Y243 whole entry, looked up)": "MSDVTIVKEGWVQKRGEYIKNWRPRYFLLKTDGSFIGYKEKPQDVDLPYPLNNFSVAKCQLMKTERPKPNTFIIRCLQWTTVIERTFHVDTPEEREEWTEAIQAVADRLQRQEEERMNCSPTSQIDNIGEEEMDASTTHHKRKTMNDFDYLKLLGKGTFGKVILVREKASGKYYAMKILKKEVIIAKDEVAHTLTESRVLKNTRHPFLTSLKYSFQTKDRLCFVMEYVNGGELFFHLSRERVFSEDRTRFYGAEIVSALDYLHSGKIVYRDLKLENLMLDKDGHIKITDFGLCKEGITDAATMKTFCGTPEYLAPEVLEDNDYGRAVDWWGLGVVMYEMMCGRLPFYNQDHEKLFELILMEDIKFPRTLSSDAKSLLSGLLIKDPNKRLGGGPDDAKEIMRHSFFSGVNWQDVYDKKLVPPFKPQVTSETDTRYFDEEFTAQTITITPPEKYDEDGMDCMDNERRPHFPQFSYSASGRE", "assay": "Inhibition of AKT phosphorylation in human SiHa cells incubated for 10 hrs by Western blot analysis", "type": "cell-based", "conditions": "dose 0.01-1 µM"}, "[33]": {"molecular_target": "T1, Protein cereblon/Heat shock protein HSP 90-alpha/Heat shock protein HSP 90-beta (Homo sapiens)", "assay": "Protac activity at CRBN/Hsp90 in human SiHa cells assessed as induction of Hsp90 degradation at 1 uM incubated for 36 hrs by Western blot analysis", "type": "cell-based"}, "SiHa [34]": {"test_system": "SiHa", "assay": "Synergistic antiproliferative activity against human SiHa cells assessed as combination index at 1 uM incubated for 72 hrs in presence of 0.32 uM cisplatin by CCK-8 assay", "type": "functional"}}, "note": "The source made the active and inactive calls. No cut-off for these calls is given here.", "data": [{"smiles": "CC1(C)CC(=O)c2c(C(F)(F)F)nn(-c3ccc(C(N)=O)c(N[C@H]4CC[C@H](OC(=O)CNC(=O)CCCCCCCNc5cccc6c5CN(C5CCC(=O)NC5=O)C6=O)CC4)c3)c2C1", "note": "(some centres undefined)", "values": [{"measurement": "Activity", "setting": "SiHa [1]", "result": 21.18, "unit": "%"}, {"measurement": "CI", "setting": "SiHa [2]", "result": 0.25}, {"measurement": "CI", "setting": "SiHa [3]", "result": 0.2}, {"measurement": "Activity", "setting": "SiHa [4]", "result": 27.12, "unit": "%"}, {"measurement": "CI", "setting": "SiHa [5]", "result": 0.14}, {"measurement": "Activity", "setting": "[6]", "result": "inactive"}, {"measurement": "CI", "setting": "SiHa [7]", "result": 2.06}, {"measurement": "CI", "setting": "SiHa [8]", "result": 2.11}, {"measurement": "Activity", "setting": "[9]", "result": "inactive"}, {"measurement": "TGI", "setting": "SiHa [10]", "result": "Active"}, {"measurement": "Activity", "setting": "SiHa [11]", "result": 21.35, "unit": "%"}, {"measurement": "CI", "setting": "SiHa [12]", "result": 0.17}, {"measurement": "CI", "setting": "SiHa [13]", "result": 0.65}, {"measurement": "CI", "setting": "SiHa [14]", "result": 0.22}, {"measurement": "Activity", "setting": "SiHa [15]", "result": "Dose-Dependent Effect"}, {"measurement": "CI", "setting": "SiHa [16]", "result": 1.45}, {"measurement": "Activity", "setting": "[17]", "result": "inactive"}, {"measurement": "Activity", "setting": "SiHa [18]", "result": 59.32, "unit": "%"}, {"measurement": "Activity", "setting": "[19]", "result": "Non-Toxic"}, {"measurement": "Activity", "setting": "SiHa [20]", "result": 78.92, "unit": "%"}, {"measurement": "Activity", "setting": "SiHa [21]", "result": 62.26, "unit": "%"}, {"measurement": "CI", "setting": "SiHa [22]", "result": 1.26}, {"measurement": "Activity", "setting": "[23]", "result": "inactive"}, {"measurement": "CI", "setting": "SiHa [24]", "result": 0.84}, {"measurement": "inhibition at 0.5 µM", "setting": "SiHa [25]", "result": "~100", "unit": "%"}, {"measurement": "Activity", "setting": "SiHa [26]", "result": "Active"}, {"measurement": "Activity", "setting": "[27]", "result": "Active"}, {"measurement": "Activity", "setting": "[28]", "result": "Active"}, {"measurement": "CI", "setting": "SiHa [29]", "result": 0.18}, {"measurement": "CI", "setting": "SiHa [30]", "result": 1.01}, {"measurement": "CI", "setting": "SiHa [31]", "result": 1.04}, {"measurement": "inhibition", "setting": "[32]", "result": "Active"}, {"measurement": "Activity", "setting": "[33]", "result": "inactive"}, {"measurement": "CI", "setting": "SiHa [34]", "result": 0.2}]}]}
